What was measured:
tyrosinase [1] = test: Western blotting, tyrosinase protein expression in human epidermal melanocytes; format: cell-based; details: α-MSH, predetermined concentrations, 24 hours (FIG. 5)
Experimental: (§1) We evaluated the effects of the peptide fragment of the present invention on the protein expressions of the melanin-producing enzymes in human epidermal melanocytes, using a Western blotting assay. Human epidermal melanocytes (Cascade Biologics, #C-0245C; Portland, Oreg., USA) were added to each well of a 6-well microplate (1.5×10^5 cells per well), along with 2 ml of DMEM, and then stabilized through incubating in a 5% CO2 incubator at 37° C. for 24 hours. α-MSH (Sigma Co, MO, USA), a melanocyte-stimulating hormone, was treated to each well, along with the peptide fragment of the present invention (the peptide of SEQ ID NO: 8) in predetermined concentrations. After incubating the cells for 24 hours, the proteins were extracted therefrom. The obtained extracts were subject to the Western blotting assay using an anti-MITF antibody (ABcam, Ma, USA), an anti-tyrosinase antibody (Santa Cruz Co., CA, USA), an anti-TRP-1 antibody (Santa Cruz Co., CA, USA), and an anti-TRP-2 antibody (Santa Cruz Co., CA, USA), so as to measure the expression levels of MITF, tyrosinase, TRP-1, and TRP-2.

tyrosinase (TYR) = test: RT-PCR, tyrosinase gene expression in human epidermal melanocytes; format: cell-based; details: α-MSH, predetermined concentrations, 72 hours, RT-PCR (FIG. 6)
Experimental: (§2) Human epidermal melanocytes were added to each well of a 6-well plate (1.5×10^5 cells per well), along with 2 ml of DMEM, and then stabilized through incubating in a 5% CO2 incubator at 37° C. for 24 hours. α-MSH (Sigma Co, MO, USA), a melanocyte-stimulating hormone, was treated to each well, along with the peptide of SEQ ID NO: 8 in predetermined concentrations. After incubating the cells for 72 hours, the total RNAs were extracted therefrom and then cDNAs were synthesized. The cDNA syntheses were carried out with a Reverse Transcription Master premix (Elpisbiotech, Daejeon, Korea). Using each synthesized cDNA as a template, reverse transcription polymerase chain reactions (RT-PCR) were carried out with a ROTOR Q GENE apparatus. Each RT-PCR solution was prepared by mixing 1 μl of cDNA, 10 μl of TOPreal qRT-PCR2X premix (Enzynomics, Daejeon, Korea), 2 μl of primer set (10 pmol) and 7 μl of D.W. The RT-PCR was carried out as follows: initially at 94° C. for 10 minutes; and then at 94° C. for 10 seconds, at 58° C. for 30 seconds, and at 72° C. for 1 minute; 40 cycles.

TRP-2 [2] = test: Western blotting, TRP-2 protein expression in human epidermal melanocytes; format: cell-based; details: α-MSH, predetermined concentrations, 24 hours (FIG. 5)
Experimental: as §1

tyrosinase [3] = test: inhibitory activity against tyrosinase activity in B16F10 (L-DOPA, 490 nm); format: cell-based, mouse; details: B16F10, α-MSH, predetermined concentrations, 72 hours, 490 nm (FIG. 4)
Experimental: B16F10 cells (Korean Cell Line Bank, Seoul) were added to each well of a 24-well plate (5×10^4 cells per well), along with 1 ml of DMEM, and then stabilized through incubating in a 5% CO2 incubator at 37° C. for 24 hours. α-MSH (Sigma Co, MO, USA), a melanocyte-stimulating hormone, was treated to each well, along with the peptide of SEQ ID NO: 8 in predetermined concentrations. After incubating the cells for 72 hours, the proteins were extracted therefrom. The obtained extracts were added to each well of a 96-well plate ([…] per each well) and then treated with a L-dihydroxyphenylalanine (L-DOPA) solution (100 μL) at 37° C. for 2 hours. The groups in which α-MSH (100 nM) and arbutin (0.01%) were respectively treated were used as positive controls. After 2 hours, the pictures thereof were taken and the tyrosinase activities thereof were measured at 490 nm with a microreader.

β-catenin = test: Western blotting, β-catenin expression in human epidermal melanocytes; format: cell-based; details: α-MSH, predetermined concentrations, 48 hours (FIG. 2)
Experimental: (§3) The effects of the peptide fragment of the present invention on the β-catenin expression and the GSK-3 phosphorylation, which plays a critical role in the activation of Wnt signaling pathways, were evaluated using a Western blotting assay. Human epidermal melanocytes (Cascade Biologics, #C-0245C; Portland, Oreg., USA) were added to 2 ml of DMEM in each well of a 6-well microplate (1.5×10^5 cells per well). The cells were then stabilized through incubating in a 5% CO2 incubator at 37° C. for 24 hours. α-MSH (Sigma Co, MO, USA), a melanocyte-stimulating hormone, was treated to each well, along with the peptide fragment of the present invention (the peptide of SEQ ID NO: 8) in predetermined concentrations. After the cells were cultured for 48 hours, the proteins were extracted therefrom. The obtained extracts were subject to the Western blotting assay using an anti-β-catenin antibody (Santa Cruz Co., CA, USA) and an anti-pGSK-3 antibody (Cell SignalingTechnology, MA, USA), so as to measure the levels of β-catenin expression and GSK-3 phosphorylation changes. […] Therefore, it can be seen that the peptide fragments of the present invention can inhibit the Wnt signaling pathways in melanocytes.

GSK-3 = test: Western blotting, GSK-3 phosphorylation in human epidermal melanocytes; format: cell-based; details: α-MSH, predetermined concentrations, 48 hours (FIG. 2)
Experimental: as §3

MITF [4] = test: Western blotting, MITF protein expression in human epidermal melanocytes; format: cell-based; details: α-MSH, predetermined concentrations, 24 hours (FIG. 5)
Experimental: as §1

TRP-2 [5] = test: RT-PCR, TRP-2 gene expression in human epidermal melanocytes; format: cell-based; details: α-MSH, predetermined concentrations, 72 hours, RT-PCR (FIG. 6)
Experimental: as §2

MITF [6] = test: RT-PCR, MITF gene expression in human epidermal melanocytes; format: cell-based; details: α-MSH, predetermined concentrations, 72 hours, RT-PCR (FIG. 6)
Experimental: as §2

[7] = system: mouse melanoma cell line B16F10; test: inhibitory activity against melanin formation in B16F10; format: cell-based; details: B16F10, α-MSH 100 nM, peptide 0.1, 1, and 10 μM, 24 hours (FIG. 3)
Experimental: B16F10 cells (Korean Cell Line Bank, Seoul) were added to each well of a 6-well microplate (1.5×10^5 cells per well), along with 2 ml of DMEM, and then incubated in a 5% CO2 incubator at 37° C. for 24 hours. α-MSH (Sigma Co, MO, USA) (100 nM) was treated to each well, along with the peptide of SEQ ID NO: 8 in the final concentrations of 0.1, 1, and 10 μM. The groups in which α-MSH (100 nM) and arbutin (0.01%) were respectively treated were used as positive controls. After additionally incubating the cells for 24 hours, the pictures of each culture ware taken so as to compare the respective levels of melanin formation.

MITF and β-catenin = test: in situ proximity ligation assay, binding between MITF and β-catenin; format: cell-based, mouse; details: B16F1 cells, similar methods to CREB test (FIG. 1c)
Experimental: The effects of the peptide fragments of the present invention on the β-catenin activation, which plays a critical role in Wnt signaling pathways, were evaluated using an in situ proximity ligation assay. The evaluation was performed with a commercially available kit, i.e., DUOLINK II in situ kit from Olink Bioscience, Sweden.
The mouse melanoma cell line B16F1 cells (Korean Cell Line Bank, Seoul) were added to 1 ml of DMEM in each well of a 24-well plate (5×10^4 cells per well), each well having a 12 mm glass in the bottom thereof. The cells were then stabilized through incubating in a 5% CO2 incubator at 37° C. for 24 hours. α-MSH (Sigma Co, MO, USA), a melanocyte-stimulating hormone (0.1 μM), and the peptide fragments of the present invention (1 μM) were treated to each well. The cells were cultured in a 5% CO2 incubator at 37° C. for 24 hours and then fixed with 4% paraformaldehyde. After a drop of the blocking solution was added to the cells on the 12 mm glass, the cells were then incubated at 37° C. for 30 minutes. Activation of the Wnt receptor increases the interaction between CREB (cyclic AMP response element-binding) and β-catenin. For determining the interaction levels thereof, the cells were treated with an anti-CREB polyclonal antibody (Santa Cruz Co., CA, USA) and an anti-β-catenin mouse monoclonal antibody (Santa Cruz Co., CA, USA) at 37° C. After incubating 30 minutes therefrom, the cells were treated with the PLA probe solution at 37° C. for 1 hour, with the ligation solution for 30 minutes, and then with the amplification solution for 100 minutes. After washing the cells with the washing buffer, the number of the red spots was measured with a confocal microscopy. In FIGS. 1a and 1b, the control means the group of no treatment and the α-MSH means the group treated with only α-MSH (i.e., without peptide treatment).
And also, according to similar methods in the above, we investigated the inhibitory effects of the peptides of SEQ ID NOs: 5, 8, and 9 on the binding between MITF and β-catenin.

TRP-1 [8] = test: Western blotting, TRP-1 protein expression in human epidermal melanocytes; format: cell-based; details: α-MSH, predetermined concentrations, 24 hours (FIG. 5)
Experimental: as §1

TRP-1 [9] = test: RT-PCR, TRP-1 gene expression in human epidermal melanocytes; format: cell-based; details: α-MSH, predetermined concentrations, 72 hours, RT-PCR (FIG. 6)
Experimental: as §2

Row | bindings between MITF and β-catenin (MITF and β-catenin) | Substance | expression level of tyrosinase (protein) (tyrosinase [1]) | gene expression of tyrosinase (TYR) (tyrosinase (TYR)) | expression level of TRP-2 (protein) (TRP-2 [2]) | tyrosinase activity (tyrosinase [3]) | level of β-catenin expression (β-catenin) | level of GSK-3 phosphorylation (GSK-3) | expression level of MITF (protein) (MITF [4]) | gene expression of TRP-2 (TRP-2 [5]) | gene expression of MITF (MITF [6]) | melanin formation (brown colors of cell culture) [7] | expression level of TRP-1 (protein) (TRP-1 [8]) | gene expression of TRP-1 (TRP-1 [9])
1 | significantly decreased | Cys-Glu-Ala-Val (CEAV; Peptide fragment) [SEQ ID NO: 9, Sfrp5-derived peptide fragment] |  |  |  |  |  |  |  |  |  |  |  | 
2 | significantly decreased | Lys-Ile-Gly (KIG; Petide fragment) [SEQ ID NO: 5, Sfrp5-derived peptide fragment] |  |  |  |  |  |  |  |  |  |  |  | 
3 |  | α-MSH: a melanocyte-stimulating hormone (Sigma Co, MO, USA), used as stimulant [reference compound] |  | increased |  | increased |  |  |  | increased | increased |  |  | increased

Row | Substance | bindings between MITF and β-catenin (MITF and β-catenin) | expression level of tyrosinase (protein) (tyrosinase [1]) | gene expression of tyrosinase (TYR) (tyrosinase (TYR)) | expression level of TRP-2 (protein) (TRP-2 [2]) | tyrosinase activity (tyrosinase [3]) | level of β-catenin expression (β-catenin) | level of GSK-3 phosphorylation (GSK-3) | expression level of MITF (protein) (MITF [4]) | gene expression of TRP-2 (TRP-2 [5]) | gene expression of MITF (MITF [6]) | melanin formation (brown colors of cell culture) [7] | expression level of TRP-1 (protein) (TRP-1 [8]) | gene expression of TRP-1 (TRP-1 [9])
4 | Ala-Gln-Lys (AQK; Petide fragment) [SEQ ID NO: 8, Sfrp5-derived peptide fragment] | significantly decreased | decreased | decreased in concentration-dependent manner | decreased | decreased in concentration-dependent manner | decreased | decreased | decreased | decreased in concentration-dependent manner | decreased in concentration-dependent manner | decreased according to the concentrations of the peptide | decreased | decreased in concentration-dependent manner
